# Non-standard residues stand in square brackets, D forms with d. No end group written: not given here. Hyp = O=C(O)[C@@H]1C[C@@H](O)CN1; Aib = CC(C)(N)C(=O)O
# Columns and labels:
# [1] = test system: MMP9; test: Gene expression by microarray in zebrafish diabetic retinopathy model; assay type: in vivo, zebrafish Tg[flk:EGFP]; settings: eyeball RNA, 4 days treatment with glucose and peptide, Figure 14
# Method: (§1) Among the embryos obtained by mating adult zebrafish Tg[flk:EGFP], embryos expressing a fluorescent protein were selected and used. On the 6th day after fertilization, the embryos were treated with glucose and the peptide of the present invention (002-175) for 4 days, and then euthanized by adding 4 mg/ml of Tricane. The eyeballs were extracted, and RNA was extracted and analyzed using microarray. In addition, Trizol was added to the extracted eyeballs, and the tissue was homogenized to extract mRNA. The extracted mRNA was quantified using a NanoDrop spectrophotometer, and cDNA was synthesized using RNA with a purity of 1.8 or higher. The synthesized cDNA was subjected to polymerization reaction of SYBR Green Master Mix, primers, and genes, and the concentration of each gene was divided by GAPDH to obtain the corrected concentration of the gene.
# [2] = test system: NF-kB; test: as above; assay type: in vivo, zebrafish Tg[flk:EGFP]; settings: eyeball RNA, 4 days treatment with glucose and peptide, Figure 14
# Method: as §1
# [3] = test system: IL-1β; test: as above; assay type: in vivo, zebrafish Tg[flk:EGFP]; settings: eyeball RNA, 4 days treatment with glucose and peptide, Figure 14
# Method: as §1
# [4] = test system: oxygen induced retinopathy (OIR) mouse model; test: Inhibition of neovascularity in oxygen induced retinopathy mouse model (Isolectin B4 flat mount, fluorescence imaging); assay type: in vivo; settings: eye drops (ED) for 5 days from day 12 to day 16 after birth; versus OIR model group; positive control aflibercept IVT once on day 12; Figures 1 and 2
# Method: In order to evaluate the efficacy of the peptide of the present invention in inhibiting neovascularity in an oxygen induced retinopathy (OIR) mouse model, an experiment was performed as follows.
# After stabilizing the mice born with the mother (new born mice) for about 3 to 4 days, they were raised under 75% hyperoxic conditions for 5 days from day 7 to day 11 after birth. Thereafter, they were raised under normoxic conditions until day 17 after birth. Drugs were administered while they were raised under normoxic conditions. The peptide of the present invention (002-175) was administered as eye drops (ED) for 5 days from day 12 to day 16 after birth, and as a positive control group, aflibercept was administered intraocularly (intravitreal injection, IVT) once on day 12 after birth. Thereafter, the mouse eyes were extracted, fixed in 10% formalin for 1 hour, and then flat mounted. The retina was divided into four equal parts centered on the optic nerve, and treated with Isolectin B4 (1 mM CaCl2, 1:200) overnight (O/N). Thereafter, they were spread on a slide glass, sprayed with mounting solution, covered with a cover glass, and photographed under a fluorescence microscope. The fluorescence images of blood vessels in the retina were obtained, and the number and area of new blood vessels and the area of blood vessels were calculated using the imageJ program.
# [5] = test system: TUNEL positive cells in the inner nuclear layer (INL) of the retina; test: TUNEL assay in retinal tissue, zebrafish diabetic retinopathy model; assay type: in vivo; settings: versus high glucose group, Figures 16 and 17
# Method: (§2) On the 6th day after fertilization (6dpf, 6 days post-fertilization), zebrafish fry were fixed with 4% paraformaldehyde for 3-4 hours, and then treated with 30% sucrose, and treated overnight at 4°C. O.C.T blocks were made, and sections were performed, and then TUNEL staining and immunofluorescence (IF) staining were performed.
# [6] = test system: zebrafish retinal blood vessels; test: Inhibition of retinal vasodilation in zebrafish diabetic retinopathy model (fluorescence microscopy); assay type: in vivo, zebrafish Tg[flk:EGFP]; settings: Figures 12 and 13
# Method: Among the embryos obtained by mating adult zebrafish Tg[flk:EGFP], embryos expressing a fluorescent protein were selected and used. On the 6th day after fertilization, the embryos were treated with glucose and the peptide of the present invention (002-175) for 4 days, and then euthanized by adding 4 mg/ml of Tricane. After fixing with 4% paraformaldehyde for 3 days, the eyeballs were separated using 3% trypsin, and the changes in the blood vessels in the separated eyeballs were observed using a fluorescence microscope.
# [7] = test system: Akt; test: Western blot of retinal tissue, STZ induced diabetic retinopathy mouse model; assay type: in vivo, C57BL/6 mice; settings: about 17 weeks of administration, versus STZ model group, Figure 7
# Method: (§3) After fasting for 3-4 hours before administration, 8-week-old C57BL/6 mice were administered with streptozotocin (STZ) dissolved in Na-citrate buffer and buffer at a dose of 50 mg/kg intraperitoneally for 5 days. The drug used at this time was prepared immediately before administration and used quickly. One week after the last STZ intraperitoneal administration, blood glucose was measured, and only mice with blood glucose exceeding 250 mg/dL were determined to be diabetic mice and used in the experiment. The drug was administered as eye drops (ED) twice a day for about 17 weeks starting from the day after model production, and 10 µg was administered intraocularly (intravitreal injection, IVT) once a month. In order to evaluate the expression level of proteins in the retina, retinal tissue was separated from the extracted mouse eyes and treated with RIPA solution to extract proteins in the retina. Western blot was performed to evaluate the expression level of factors related to neovascularization and vascular permeability in the retina.
# [8] = test system: vascular endothelial growth factor (VEGF); test: as above; assay type: in vivo, C57BL/6 mice; settings: about 17 weeks of administration, versus STZ model group, Figure 7
# Method: as §3
# [9] = test system: Streptozotocin (STZ) induced diabetic retinopathy mouse model; test: Electroretinography in streptozotocin induced diabetic retinopathy mouse model; assay type: in vivo, C57BL/6 mice; settings: electroretinogram (ERG); eye drops (ED) twice a day for about 17 weeks; versus STZ model group; comparator aflibercept; Figure 3
# Method: The streptozotocin induced mouse model is a type 1 diabetes mellitus model that induces diabetes mellitus by injecting the antibiotic streptozotocin (STZ) into the mouse's peritoneum to damage the beta cells that produce insulin in the pancreas. It is one of the models used in diabetic retinopathy research, and it is a model that can confirm the early stage of diabetic retinopathy from the time of onset of diabetes mellitus.
# After fasting for 3-4 hours before administration, 8-week-old C57BL/6 mice were administered with streptozotocin (STZ) dissolved in Na-citrate buffer and buffer at a dose of 50 mg/kg intraperitoneally for 5 days. The drug used at this time was prepared immediately before administration and used quickly. One week after the last STZ intraperitoneal administration, blood glucose was measured, and only mice with blood glucose exceeding 250 mg/dL were determined to be diabetic mice and used in the experiment. The drug was administered as eye drops (ED) twice a day for about 17 weeks starting from the day after model production, and 10 µg was administered intraocularly (intravitreal injection, IVT) once a month. […] The retina was stimulated with a single white light to obtain a response value, and the amplitude from the trough of the a wave to the peak of the b wave was measured, which was evaluated as an index of retinal function.
# [10] = test system: db/db mouse model; test: Electroretinography in db/db mouse model; assay type: in vivo, db/db mice; settings: electroretinogram (ERG), Figure 4
# Method: The drug was administered as eye drops (ED) to 12-week-old db/db mice twice a day (BID) or three times a day (TID) for about 12 weeks. In order to evaluate retinal function, the mice were dark-adapted for more than 12 hours before measuring electroretinogram (ERG), and then the mice were subjected to pupillary dilation and anesthetized, and electrodes were placed on the skin, tail, and cornea to measure ERG. The retina was stimulated with a single white light to obtain a response value, and the amplitude from the trough of the a wave to the peak of the b wave was measured, which was evaluated as an index of retinal function.
# [11] = test system: MMP9; test: Gene expression by real-time PCR in zebrafish diabetic retinopathy model; assay type: in vivo, zebrafish Tg[flk:EGFP]; settings: corrected by GAPDH, eyeball mRNA, Figure 15
# Method: as §1
# [12] = test system: ikkα; test: as above; assay type: in vivo, zebrafish Tg[flk:EGFP]; settings: corrected by GAPDH, eyeball mRNA, Figure 15
# Method: as §1
# [13] = test system: ikkγ; test: as above; assay type: in vivo, zebrafish Tg[flk:EGFP]; settings: corrected by GAPDH, eyeball mRNA, Figure 15
# Method: as §1
# [14] = test system: NF-kB; test: as above; assay type: in vivo, zebrafish Tg[flk:EGFP]; settings: corrected by GAPDH, eyeball mRNA, Figure 15
# Method: as §1
# [15] = test system: IL-1β; test: as above; assay type: in vivo, zebrafish Tg[flk:EGFP]; settings: corrected by GAPDH, eyeball mRNA, Figure 15
# Method: as §1
# [16] = test system: ikkβ; test: as above; assay type: in vivo, zebrafish Tg[flk:EGFP]; settings: corrected by GAPDH, eyeball mRNA, Figure 15
# Method: as §1
# [17] = test system: pericytes; test: Loss of pericytes in retinal blood vessels of db/db mice (elastase digest, PAS staining); assay type: in vivo; settings: Figures 5 and 6
# Excerpt: In the early stage of nonproliferative diabetic retinopathy, blood flows into the tissue due to the loss of pericytes surrounding the capillaries, causing the macula to swell. Macular edema is a representative symptom of nonproliferative diabetic retinopathy in which the focus of objects becomes blurred, the field of vision darkens, and visual acuity temporarily decreases. Therefore, in order to evaluate the efficacy of the peptide of the present invention in inhibiting loss of pericytes, an experiment was performed as follows.
# The drug was administered as eye drops (ED) to 12-week-old db/db mice twice a day (BID) or three times a day (TID) for about 12 weeks. In order to evaluate the state of blood vessels in the retina, the eyes of the extracted mice were fixed in 10% formalin for a week. Thereafter, the fixed eye tissue was treated with elastase to separate the retinal blood vessels and PAS staining was performed. The ratio of vascular endothelial cells and pericytes present in the blood vessel walls and the number of acellular blood vessels were quantified to evaluate the permeability of the blood vessels in the retina.
# [18] = test system: ZO-1; test: Immunofluorescence (IF) staining of zebrafish eye, diabetic retinopathy model; assay type: in vivo; settings: tight junction protein; versus high glucose group; Figures 16 and 17
# Method: as §2
# [19] = test system: VEGF; test: as above; assay type: in vivo; settings: outer nuclear layer (ONL) of the retina; versus high glucose group; Figures 16 and 17
# Method: as §2
# [20] = test system: GFAP; test: as above; assay type: in vivo; settings: outer nuclear layer (ONL) of the retina; versus high glucose group; Figures 16 and 17
# Method: as §2
# [21] = test system: JNK; test: Western blot of retinal tissue, db/db mouse model; assay type: in vivo, db/db mice; settings: eye drops BID or TID for about 12 weeks, versus db/db mouse group, Figure 11
# Method: (§4) The drug was administered as eye drops (ED) to 12-week-old db/db mice twice a day (BID) or three times a day (TID) for about 12 weeks. In order to evaluate the expression level of proteins in the retina, retinal tissue was separated from the extracted mouse eyes and treated with RIPA solution to extract proteins in the retina. Western blot was performed to evaluate the expression level of factors related to neovascularization and vascular permeability in the retina.
# [22] = test system: COX-2; test: Western blot of retinal tissue, db/db mouse model; assay type: in vivo, db/db mice; settings: eye drops three times a day (TID) for about 12 weeks, versus db/db mouse group, Figure 10
# Method: as §4
# [23] = test system: Akt; test: Western blot of retinal tissue, db/db mouse model; assay type: in vivo, db/db mice; settings: eye drops three times a day (TID) for about 12 weeks, versus db/db mouse group, Figure 9
# Method: as §4
# [24] = test system: vascular endothelial growth factor (VEGF); test: Western blot of retinal tissue, db/db mouse model; assay type: in vivo, db/db mice; settings: eye drops three times a day (TID) for about 12 weeks, versus db/db mouse group, Figure 8
# Method: as §4
# [25] = eye drops (ED) BID or TID for about 12 weeks, versus db/db mouse group
# [26] = eye drops three times a day (TID) for about 12 weeks
substance,measurement,setting,value
[Hyp]GQE[Aib]LA [002-175],gene expression of MMP9,[1],decrease in the gene expression
same,gene expression of NF-kB,[2],decrease in the gene expression
same,gene expression of IL-1β,[3],decrease in the gene expression
same,area of new blood vessels,[4],decrease in the area of new blood vessels to a level similar to that of the group administered with aflibercept
same,TUNEL positive cells,[5],decrease in TUNEL positive cells
same,diameter of retinal blood vessels,"[6]; 100 µg/ml, 4 days, high glucose (130 mM glucose)",decrease in the diameter of retinal blood vessels to a level similar to that of the normal group
same,diameter of retinal blood vessels,"[6]; 200 µg/ml, 4 days, high glucose (130 mM glucose)",decrease in the diameter of retinal blood vessels to a level similar to that of the normal group
same,diameter of retinal blood vessels,"[6]; treated with glucose and peptide for 4 days from 6th day after fertilization, versus high glucose (130 mM glucose) group",decrease in the diameter of retinal blood vessels
same,phosphorylation level of Akt,[7],decrease in the phosphorylation level of Akt
same,expression of vascular endothelial growth factor (VEGF),[8],decrease in the expression of vascular endothelial growth factor
same,amplitude of the a wave and the b wave,[9],increase in the amplitude of the a wave and the b wave to a level similar to that of the group administered with aflibercept
same,amplitude of the a wave and the b wave,[10]; [25],increase in the amplitude of the a wave and the b wave
same,"amplitude of the a wave and the b wave, effect of TID compared with BID",[10]; [26],more excellent effect compared to the group administered twice a day (BID)
same,gene expression of MMP9,[11],decrease in the gene expression
same,gene expression of ikkα,[12],decrease in the gene expression
same,gene expression of ikkγ,[13],decrease in the gene expression
same,gene expression of NF-kB,[14],decrease in the gene expression
same,gene expression of IL-1β,[15],decrease in the gene expression
same,gene expression of ikkβ,[16],decrease in the gene expression
same,pericytes,[17]; [25],inhibition of the decrease in pericytes
same,"pericytes, effect of TID compared with BID",[17]; [26],more excellent effect compared to the group administered twice a day (BID)
same,expression of ZO-1,[18],increase in expression and a recovery pattern
same,expression of VEGF,[19],decrease in the expression of VEGF and GFAP
same,expression of GFAP,[20],decrease in the expression of VEGF and GFAP
same,phosphorylation level of JNK,[21],decrease in the phosphorylation level of JNK
same,expression of COX-2,[22],decrease in the expression of COX-2
same,phosphorylation level of Akt,[23],decrease in the phosphorylation level of Akt
same,expression of vascular endothelial growth factor (VEGF),[24],decrease in the expression of vascular endothelial growth factor

# Source: patent publication EP4674425A1, “COMPOSITION FOR TREATING DIABETIC RETINOPATHY, COMPRISING PEPTIDE” (EyebioKorea, Inc., priority 2023, dated 2026)
